Experimental data published in patent US20220265657A1, “ADMINISTRATION METHOD AND DOSAGE REGIMEN FOR TREATMENT OF NEURODEGENERATIVE DISEASES USING TRAMETINIB AND MARKERS” (GENUV INC., priority 2019, published 2022).

How the values were obtained:
Type in all cases: in vivo
5XFAD mice [1] = experiment: LTP recording (EPSCs) at hippocampal CA1 region; conditions: 8-month old 5XFAD mice, oral administration
5XFAD mice [2] = experiment: Immunofluorescence of active caspase 3, LC3 and LAMP1 in cortex layer V; conditions: 5XFAD mice cortex
Protocol: (§1) Trametinib treatment: Trametinib (Medchemexpress, Monmouth Junction, N.J.) was micronized and suspended in the vehicle containing 5% mannitol, 1.5% hydroxypropyl methylcellulose and 0.2% sodium lauryl sulfate. For pharmacokinetic analysis, 0.05, 0.2 and 0.8 mg/kg of trametinib were orally administered to 7-week-old normal mice (ICR, n=5 per group) as a single administration. […] For studies on the change in pERK expression in normal mice and whole cell RNA sequencing study, 0.1 mg/kg/day of trametinib (in 4% DMSO+96% corn oil) was orally administered to 6-week old C57BL/6 mice (n=3 per group). Mice were sacrificed after 1, 2, 3, or 4 weeks of administration. 5XFAD mice (male, n=7˜10 per group) were divided into vehicle and trametinib treated groups. 12-month old mice received vehicle or 0.1 mg/kg of trametinib for 1 month by oral gavage once a day (These mice are referred to as “13-month old 5XFAD mice” in the Examples). […] Blood was obtained after completion of treatment.
(§2) Brains were dissected and analyzed by immunohistochemistry. For paraffin sections, brain hemispheres were embedded sagittally in paraffin and prepared into sections of […] slices. […] The sections were counterstained with DAPI. […] NeuN-positive and active caspase 3-positive cells from cortex layer V were counted using Icy micromanager program (Institut Pasteur, Paris, France).

5XFAD mice [3] = experiment: Immunofluorescence staining of Map2, Tau and swollen axons in cortex layer V
Protocol: as §1, §2

[4] = test system: whole brains of normal mice; experiment: Bulk RNA-Seq of whole brains of normal mice; conditions: FC ≥1.3, FDR <0.05
Protocol: as §1
Whole cell RNA sequencing: RNA was isolated from mice whole brain, and cDNA libraries for RNA sequencing were prepared using the TruSeq Stranded mRNA Prep Kit (Illumina, San Diego, Calif.) according to the manufacturer's guidelines (1). The libraries were sequenced on the Illumina Nextseq500 platform, and the reads were mapped to the reference Mouse mm10 genome using Tophat v2.0.13. […] To define differentially expressed genes (DEG), we set up a stringent statistic cutoff of fold change (FC) of ≥1.3 and a false discovery rate (FDR)<0.05. […] Gene ontology was performed with the Gene Ontology program of the gene ontology consortium. Heatmap analysis was performed by R studio using the DEG list related with synapse, neurogenesis and lysosome.

MEK1/2 = experiment: Western blot of pERKs and ERKs in whole brain lysates of normal mice; conditions: 0.1 mg/kg/day oral
Protocol: as §1
Lysates were centrifuged at 13,000 rpm for 20 min at 4° C., and the protein content in the supernatant was determined using the Bradford assay (Bio-rad, Hercules, Calif.). For subcellular fractionation, cells were lysed with lysis buffer (250 mM Sucrose, 20 mM HEPES, pH 7.4, 10 mM KCl, 1.5 mM MgCl2, 1 mM EGTA, 1 mM EDTA, 1 mM DTT) containing protease inhibitor for 30 min on ice, followed by centrifugation at 720 g for 5 min at 4° C. Supernatants were centrifuged at 15,000 rpm for 10 min at 4° C., and the resulting supernatant was used as the cytosol fraction. After centrifugation at 720 g for 5 min, pellets were washed with lysis buffer and dissolved in nuclear lysis buffer (50 mM Tris HCl, pH 8.0, 150 mM NaCl, 1% NP40, 0.5% sodium deoxycholate, 0.1% SDS, 10% glycerol) as the nuclear fraction. Protein from each sample was subjected to 8%˜15% SDS-PAGE, and the resolved proteins were transferred to nitrocellulose or polyvinylidene fluoride membrane. The membranes were blocked with 5% nonfat milk powder in Tris-buffered saline/Tween 20 (TBST) for 1 h at room temperature, then incubated with anti-phospho-ERK (Cell signaling), anti-ERK (Cell signaling), anti-LAMP1 (Abcam), anti-LC3 (Cell signaling), anti-cathepsin B (Cell signaling), anti-p62 (Cell signaling), anti-p62 (5114, Cell signaling), anti-phospho-mTOR (5536, Cell signaling), anti-mTOR (2983, Cell signaling), anti-phospho-ULK1 (14202, Cell signaling), anti-ULK1 (8054, Cell signaling), anti-TFEB (852501, Biolegend), and anti-GAPDH (Cell signaling) overnight at 4° C. After washing, membranes were incubated with horseradish peroxidase-conjugated goat anti-rabbit IgG antibody (Thermo) or goat anti-rat IgG antibody (Thermo) for 2 h at room temperature. […] The detected signals were quantified using a LAS-4000 system (Fuji Film, Tokyo, Japan).

5XFAD mice [5] = experiment: Western blot of brain cortex lysates
Protocol: as §1
Lysates were centrifuged at 13,000 rpm for 20 min at 4° C., and the protein content in the supernatant was determined using the Bradford assay (Bio-rad, Hercules, Calif.). For subcellular fractionation, cells were lysed with lysis buffer (250 mM Sucrose, 20 mM HEPES, pH 7.4, 10 mM KCl, 1.5 mM MgCl2, 1 mM EGTA, 1 mM EDTA, 1 mM DTT) containing protease inhibitor for 30 min on ice, followed by centrifugation at 720 g for 5 min at 4° C. Supernatants were centrifuged at 15,000 rpm for 10 min at 4° C., and the resulting supernatant was used as the cytosol fraction. After centrifugation at 720 g for 5 min, pellets were washed with lysis buffer and dissolved in nuclear lysis buffer (50 mM Tris HCl, pH 8.0, 150 mM NaCl, 1% NP40, 0.5% sodium deoxycholate, 0.1% SDS, 10% glycerol) as the nuclear fraction. Protein from each sample was subjected to 8%˜15% SDS-PAGE, and the resolved proteins were transferred to nitrocellulose or polyvinylidene fluoride membrane. […] The detected signals were quantified using a LAS-4000 system (Fuji Film, Tokyo, Japan).

For `CC(=O)Nc1cccc(-n2c(=O)n(C3CC3)c(=O)c3c(Nc4ccc(I)cc4F)n(C)c(=O)c(C)c32)c1` [trametinib], the “long-term potentiation (LTP), EPSC slope” value (5XFAD mice [1]) was “recovered in the trametinib-orally administered animals to a level almost comparable to that of the wild type control”, the LC3-LAMP1 co-stained cells (5XFAD mice [2]) was “Increased LC3-LAMP1 co-stained cells” and the “apoptosis (active caspase 3)” value (5XFAD mice [2]) was “reduced apoptosis”. For the same molecule, the bulb-like swollen axons (5XFAD mice [3]; 5XFAD mice, compared to vehicle-administered group) was “significantly reduced”, the “dendritic and axonal lengths (Map2, Tau)” value (5XFAD mice [3]; cortex of 8-month-old and 13-month-old 5XFAD mice) was “recovery of dendritic and axonal lengths” and the “number of differentially expressed genes (DEGs) between vehicle and trametinib group” value (shortened to “number of differentially expressed genes”) ([4]; first week) was 500. The “number of differentially expressed genes” value ([4]; fourth week) was 538, the “number of differentially expressed genes” value ([4]; second week) was 498 and the “number of differentially expressed genes” value ([4]; third week) was 446. For the same molecule, the “decrease of p-ERKs/ERKs ratio compared to vehicle treated group” value (“decrease of p-ERKs/ERKs ratio” for short) (MEK1/2; 1 week administration) was 22.5%, the “decrease of p-ERKs/ERKs ratio” value (MEK1/2; 2 week administration) was 33.7% and the “decrease of p-ERKs/ERKs ratio” value (MEK1/2; 3 week administration) was 50%. For the same molecule, the “decrease of p-ERKs/ERKs ratio” value (MEK1/2; 4 week administration) was 45.6%, the “autophagosome marker LC3-II level” value (5XFAD mice [5]; 8-month old 5XFAD mice brain) was “further increased” and the “level of mature cathepsin B” value (5XFAD mice [5]; 8-month old 5XFAD mice brain) was “seen to increase”. The “expression of presynaptic marker synaptophysin and postsynaptic marker PSD-95” value (5XFAD mice [5]; brain cortex lysates of 5XFAD mice) was “Increased expression”.
